These results are taken from US9381173B2, “Isolated stereoisomeric forms of (S)2-N(3-O-(propan 2-Ol)-1-propyl-4-hydroxybenzene)-3-phenylpropylamide” (Novaremed Ltd., priority 2011, dated 2016).

Series [1] has as its system tail flick model for nociceptive pain in mice. The series is described as follows: Tail flick test for nociceptive pain. It is filed as in vivo. The following applies: for Mean latency time Post-treatment: 30 minutes after administration; for Mean latency time Pre-treatment: baseline a day before. How it is done: In the present study the analgesic effect of the substantially pure enantiomers E1 and E2 was evaluated using the tail flick model for nociceptive pain in mice.
The experiment was performed using male ICR strain 7 weeks old mice (25-27 g) (supplied by Harlan Israel, Ltd.)
Response to pain was assessed using the tail flick method which utilizes an Ugo Basile tail flick instrument. The animal is placed and held gently on the Ugo Basile tail flick (TF) instrument surface with the tail straight back and above a photoelectric cell that served as heat source. The heat source and timer are turned on by a foot pedal press, and automatically switch off when the animal flicks its tail off the emitter. Latency is measured and analyzed as an analgesic effect.
Description of the Study: The baseline tail flick was measured a day before the experiment started. On the day of the experiment, animal body weights were first measured followed by the IP administration of the test items (vehicle, morphine, NRD 13 S E1 and E2). 30 minutes after administration of the test items, the animals were subjected to the tail-flick testing. The tail-flick experiments were followed by blood sampling of all groups. The experiment was terminated after spinal cords and brains of all groups have been collected.
Statistics and Data Evaluation: All parameters are represented as means and standard error of the mean (SEM). Data was analyzed using a two tailed, unpaired T-test to compare each treatment group to the Vehicle treated animals. A two-tailed, paired T-test was used to compare the pre-treatment and post-treatment of each treatment group. Probability values p<0.01 and p<0.05 are considered significant.
Background: Hot-plate and tail-flick tests time the reaction to a heat stimulus.

Series [2] can be described thus: Body weight in the Chung model study. It is filed as in vivo, rats. How it is done: Body Weights: Body weight was measured at regular intervals on study days −1 for baseline values and seven days after the surgery (study day 7).
For series [3], the system named is spinal nerve ligation (SNL or Chung) model for neuropathic pain in rats. Description: Spinal nerve ligation (Chung) model, Von Frey test for mechanical allodynia. Type of series: in vivo. Here is the method:
The antinociceptive and analgesic activity of E1 in a spinal nerve ligation (SNL or Chung) model for neuropathic pain in rats was evaluated.
On study day 0, all animals underwent Chung surgery, which consisted of an operation where the left L5-L6 spinal nerves were isolated and cut. Fourteen days post surgery the animals were selected using pain threshold results from the Von Frey test. Only animals that indicated signs of mechanical allodynia were included in the study. After the selection process, the animals were grouped and Test Items were administered via IP. The pain response was measured using Von Frey methodology at 2, 5 and 24 hours after Test Item administration on study day 14, and at 2, 5, 24 and 48 hours on study day 21 after 7 days of Test Item administration.
Species: 50 SD young adult male rats, 225-260 g at study initiation (Harlan Laboratories, Israel. Ltd.)
Neuropathic Pain Induction: While under anesthesia using ketamine/xylazine sodium and after the area was shaved, the rat was placed in a prone position and the left paraspinal muscles were separated from the spinous process at the L4-S2 levels. The L6 vertebral transverse process was carefully removed with a small rongeur to visually identify the L5-L6 spinal nerves. The left L5-L6 spinal nerves were cut. The muscle was then closed with 4-0 silk sutures and the skin was closed by a clamp. Following surgery, the rats were returned to the cage and remained under a heating lamp until they awoke.
Inclusion/Exclusion Criteria for Pre-Selection: On post-operative day 14, animals were tested for mechanical allodynia using Von Frey methodology prior to being placed in their experimental groups. Only animals with a pain threshold of ≦26 g for the operated leg were included in the study. In order to form homogenous treatment groups and to adhere to randomization, all the operated rats were grouped according to inclusion/exclusion criteria.
The Von Frey test was performed prior to Test Items' administrations (pre-TI injection) and at 2 and 5 hours after TI administration (post-TI injection) on study days 14 and 21.
Von Frey test was performed prior to TI's administration on study day 15 (24 hours post-TI's administration on study day 14) and on study days 22 and 23 (24 and 48 hours respectively post-TI's administration on study day 21).
Pain Response Evaluation: Pain response was evaluated using Von Frey test for mechanical allodynia.
The Von Frey test for mechanical allodynia is based on applying short pulses of pressure that are not painful to a naive animal. In fact, in order to achieve paw withdrawal from a naive animal, the pressure applied is sometimes higher than 60 g. This often requires the researcher to apply enough pressure with the Von Frey filament to actually lift the paw of the naive animal. However, in disease conditions, the animals are sensitive to much lower pressure and experience pain as a result of a normally non-painful stimulus.
Mechanical Allodynia Evaluation (Von Frey Testing): Allodynic response to tactile stimulation was assessed using the Von Frey apparatus (Touch®).
The rats were placed in an enclosure and positioned on a metal mesh surface, but allowed to move freely. The rats' cabins were covered with red cellophane to diminish environmental disturbances. The test began after cessation of exploratory behavior. The set of Von Frey monofilaments provide an approximate logarithmic scale of actual force and a linear scale of perceived intensity as provided by the manufacturer of the Von Frey apparatus (Ugo Basil). The operating principle: When the tip of a fiber of given length and diameter is pressed against the skin at right angles, the force of application increases as long as the researcher continues to advance the probe until the fiber bends. After the fiber bends, the probe continues to advance, causing the fiber to bend more, but without additional force being applied to the paw. […]

In the next series the target is Lyn A (Homo sapiens, UniProt P07948). The series is described as follows: Lyn A mobility-shift kinase assay (Caliper LabChip 3000). To be noted: 5 concentrations, duplicate wells; listed as (S,R) enantiomer. Type of series: biochemical. Here is the method: (§1) Each compound and concentration was tested in duplicate wells.
Sequence of Lyn A (P07948 whole entry, species assumed): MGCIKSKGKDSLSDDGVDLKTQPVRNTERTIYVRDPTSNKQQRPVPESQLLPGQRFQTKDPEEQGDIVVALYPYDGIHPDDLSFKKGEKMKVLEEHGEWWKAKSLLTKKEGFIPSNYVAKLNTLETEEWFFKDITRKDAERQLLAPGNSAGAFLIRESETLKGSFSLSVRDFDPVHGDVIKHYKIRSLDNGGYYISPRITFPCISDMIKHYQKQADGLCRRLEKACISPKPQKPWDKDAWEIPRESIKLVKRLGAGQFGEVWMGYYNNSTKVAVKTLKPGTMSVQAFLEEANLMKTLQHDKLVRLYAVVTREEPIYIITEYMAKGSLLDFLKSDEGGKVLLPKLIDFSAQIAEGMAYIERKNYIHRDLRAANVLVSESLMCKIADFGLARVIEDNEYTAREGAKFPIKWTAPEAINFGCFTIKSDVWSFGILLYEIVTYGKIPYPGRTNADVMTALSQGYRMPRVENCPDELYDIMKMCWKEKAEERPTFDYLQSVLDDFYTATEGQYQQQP
(§2) Data points are the averages of duplicate wells. Error bars represent the mean±replicate % activity.

Another series concerns the target Lyn B (Homo sapiens, UniProt P07948). Description: Lyn B mobility-shift kinase assay (Caliper LabChip 3000). The following applies: 5 concentrations, duplicate wells; listed as (S,R) enantiomer. It is filed as biochemical. How it is done: as §1, §2
A further series addresses BLK (Homo sapiens, UniProt P51451). Description: BLK mobility-shift kinase assay (Caliper LabChip 3000). It is filed as biochemical. The following applies: 5 concentrations, duplicate wells; listed as (S,R) enantiomer. How it is done:
as §1, §2

[4] abbreviates: 150 mg/kg IP on days 14, 15, 21 (group 2).
Setting [5] is: 150 mg/kg IP (group 2), before first dose.
[6] abbreviates: 150 mg/kg IP, study day 14, 2 hours.
Where [7] appears, read: 150 mg/kg IP, study day 21, 2 hours.

Sequence of BLK (P51451 whole entry, species assumed): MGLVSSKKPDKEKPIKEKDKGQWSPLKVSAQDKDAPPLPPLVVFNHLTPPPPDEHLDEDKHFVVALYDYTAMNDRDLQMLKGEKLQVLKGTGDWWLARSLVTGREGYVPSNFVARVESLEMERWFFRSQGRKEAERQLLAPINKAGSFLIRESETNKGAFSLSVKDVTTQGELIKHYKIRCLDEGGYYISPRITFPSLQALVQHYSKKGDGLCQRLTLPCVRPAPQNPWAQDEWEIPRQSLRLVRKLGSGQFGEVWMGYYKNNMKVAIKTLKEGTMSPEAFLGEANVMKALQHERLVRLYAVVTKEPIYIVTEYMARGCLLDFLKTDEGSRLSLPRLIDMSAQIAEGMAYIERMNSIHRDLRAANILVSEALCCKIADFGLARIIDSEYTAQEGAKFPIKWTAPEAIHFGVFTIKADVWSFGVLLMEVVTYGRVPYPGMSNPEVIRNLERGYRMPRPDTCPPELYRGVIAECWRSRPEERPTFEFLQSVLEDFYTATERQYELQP
Sequence of Lyn B (P07948 1-491 isoform P07948-2, species assumed): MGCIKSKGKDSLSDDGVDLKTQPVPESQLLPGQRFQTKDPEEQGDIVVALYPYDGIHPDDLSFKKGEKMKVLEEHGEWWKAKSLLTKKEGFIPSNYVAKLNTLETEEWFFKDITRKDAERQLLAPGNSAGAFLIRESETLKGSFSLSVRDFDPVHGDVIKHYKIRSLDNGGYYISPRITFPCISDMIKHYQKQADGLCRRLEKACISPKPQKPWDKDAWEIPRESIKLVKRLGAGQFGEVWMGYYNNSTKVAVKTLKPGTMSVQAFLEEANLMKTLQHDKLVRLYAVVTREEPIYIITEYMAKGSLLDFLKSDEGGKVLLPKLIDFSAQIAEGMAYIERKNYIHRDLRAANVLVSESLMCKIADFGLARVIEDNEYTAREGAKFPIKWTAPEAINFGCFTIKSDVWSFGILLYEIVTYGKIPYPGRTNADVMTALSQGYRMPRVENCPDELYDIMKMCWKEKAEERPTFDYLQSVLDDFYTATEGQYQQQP

For the compound `CN1CC[C@]23c4c5ccc(O)c4O[C@H]2[C@@H](O)C=C[C@H]3[C@H]1C5` [Morphine, reference compound], the “Mean latency time Post-treatment” value in series [1] (5 mg/kg IP (group 2)) was determined as 15.38 ± 1.47 s. Also, the “Mean latency time Pre-treatment” value in series [1] (5 mg/kg IP (group 2)) is 7.92 ± 0.17 s; in series [1] (5 mg/kg IP (group 2), listed as morphine) it was 7.92 ± 0.17 s.

As for `NCC1(CC(=O)O)CCCCC1` [Gabapentin, reference compound], the “Mean group body weight Day 14” value in series [2] (150 mg/kg IP (group 2), before first administration) is 283.30 ± 2.53 g. For the same compound, the “Mean group body weight Day 7” value in series [2] (150 mg/kg IP (group 2), before treatment) turned out to be 255.20 ± 2.83 g. The “Mean group body weight Baseline” value in series [2] (150 mg/kg IP (group 2), study day -1, before surgery and treatment) worked out at 242.10 ± 2.44 g. Also, the “Mean group body weight Day 21” value in series [2] (setting [4]) came out at 307.90 ± 3.42 g. Besides, in series [3] (150 mg/kg IP (group 2)), the “delta force right minus left leg, Day 14 Post-treatment 5 hours” value came to 48.20 ± 1.85 g and the “mean Von Frey force, left operated leg, Day 14 Post-treatment 5 hours” value was found to be 11.80 ± 1.85 g. Moreover, in series [3] (setting [5]), the “delta force right minus left leg, Day 14 Pretreatment” value was 50.00 ± 0.88 g and the “mean Von Frey force, left operated leg, Day 14 Pretreatment” value was determined as 10.00 ± 0.88 g. Also, in series [3] (150 mg/kg IP (group 2), before operation), the “difference (delta) force between right healthy leg and left operated leg, Baseline” value was 0.00 ± 0.00 g. In series [3] (150 mg/kg IP (group 2), day -1, before operation), the “mean Von Frey force required for withdrawal of the left operated leg, Baseline” value worked out at 53.20 ± 4.53 g. In addition, in series [3] (setting [4]), the “delta force right minus left leg, Day 21 Post-treatment 5 hours” value was 47.40 ± 1.85 g; the “delta force right minus left leg, Day 21 Post-treatment 24 hours” value is 46.60 ± 2.29 g; the “delta force right minus left leg, Day 21 Post-treatment 48 hours” value was determined as 50.50 ± 0.69 g; the “delta force right minus left leg, Day 21 Pretreatment” value is 49.80 ± 0.85 g. Further, in series [3] (setting [4]), the “mean Von Frey force, left operated leg, Day 21 Post-treatment 5 hours” value worked out at 12.60 ± 1.85 g; the “mean Von Frey force, left operated leg, Day 21 Post-treatment 24 hours” value came to 13.40 ± 2.29 g; the “mean Von Frey force, left operated leg, Day 21 Post-treatment 48 hours” value was 9.50 ± 0.69 g; the “mean Von Frey force, left operated leg, Day 21 Pretreatment” value is 10.20 ± 0.85 g. Besides, the “conclusion: analgesic activity of the positive control” value in series [3] (150 mg/kg IP, 2 hours after administration on study days 14 and 21) is recorded as “active”. For the same compound, the “conclusion: analgesic activity of the positive control” value in series [3] (150 mg/kg IP, 5 hours, 24 hours and 48 hours post dosing) is given as “no longer detected”. In series [3] (150 mg/kg IP, day 14, 2 hours), the “inhibition of allodynia compared to the pretreatment value of delta withdrawal force” value was “inhibited allodynia”. Besides, the “inhibition of allodynia compared to the pretreatment value of delta withdrawal force” value in series [3] (150 mg/kg IP, day 14, 5 hours) is recorded as “not effective”. The “pain relief activity, delta withdrawal force between the two legs vs. Vehicle” value in series [3] (150 mg/kg IP, day 14 and day 21, 2 hours) is given as “significant pain relief activity”. Also, in series [3] (150 mg/kg IP, day 21, 2 hours), the “inhibition of allodynia compared to the pretreatment value of delta withdrawal force” value is on record as “effectively inhibited allodynia”. For the same compound, in series [3] (setting [6]), the “inhibition of allodynia (Von Frey) compared to the Vehicle control” value (“inhibition … compared to the Vehicle control” for short) is given as “inhibited allodynia” and the “inhibition of allodynia (Von Frey) compared to the pretreatment value” is on record as “inhibited allodynia”. For the same compound, the “inhibition … compared to the Vehicle control” value in series [3] (150 mg/kg IP, study day 14, 5 hours) is on record as “not effective”. In series [3] (150 mg/kg IP, study day 14, 24 hours), the “inhibition of allodynia (Von Frey) compared to the pretreatment value” is reported as “not effective”. Moreover, in series [3] (setting [7]), the “inhibition … compared to the Vehicle control” value is recorded as “effectively inhibited allodynia” and the “inhibition of allodynia (Von Frey) compared to the pretreatment value” is “inhibited allodynia”. Moreover, the “inhibition … compared to the Vehicle control” value in series [3] (150 mg/kg IP, study day 21, 5 hours) is “not effective”. Moreover, in series [3] (summary statement), the “duration of analgesic effect post administration” value is at most 5 h.

Take `CC(O)COCC(Cc1ccc(O)cc1)NC(=O)CCc1ccccc1` [E2, (S)2-N(3-O—((R)propan 2-ol)-1-propyl-4-hydroxybenzene)-3-phenylpropylamide]: the “modulation of LynA tyrosine kinase activity” value on Lyn A is recorded as “inhibited”. For the same compound, the “modulation of LynB tyrosine kinase activity” value on Lyn B was “inhibited”. Moreover, in series [1] (10 mg/kg IP), the “difference in tail flick latency times” value is “did not cause any statistically significant difference”; the “increase of latency time between pretreatment and post treatment” value was “not statistically significant”; the “reducing pain when compared to the Vehicle” value is listed as “not significantly active in reducing pain”. Also, in series [1] (10 mg/kg IP (groups 4, 6)), the “Δ of latency time post- and pre-treatment” value stood at 0.63 ± 0.87 s; the “Mean latency time Post-treatment” value was determined as 8.93 ± 0.93 s; the “Mean latency time Pre-treatment” value was 8.30 ± 0.46 s. Moreover, the “conclusion: activity in tail flick study” value in series [1] (dose of 10 mg/kg) is recorded as “not active”. For the same compound, the “pain analgesic in animal models of pain” value in series [1] (summary statement, listed as (S,R) enantiomer) was “ineffective or less effective”. For the same compound, the “modulation of BLK tyrosine kinase activity” value at BLK is reported as “inhibited”.
